Assay results from US12318398B2, “MST1 kinase inhibitor and use thereof” (priority 2018, dated 2025).
Where two headings read alike, the source gives them in different places.

Tests used:
MST1 [1] = target: T1, MST1 (Homo sapiens (Human), UniProt Q13043); conditions: literature; read-out: IC50 against MST1; cited from earlier work
MST1 [2] = target: T1, MST1; assay: In vitro enzyme activity test (ADP-GLO); format: biochemical; conditions: ATP 50 μM, 37° C. 1 hour, read-out: MST1 (IC50/μM)
Procedure: The IC50 values of the compounds against MST1 were determined. The protein kinase MST1 and the substrate were obtained from commercial sources.
5.4 μL of protein kinase MST1 diluted to a certain concentration (final concentration was 2.5 ng/μL) and 1 μL of serially diluted drug compounds and control compound XMU-MP-1 were taken to react at room temperature for 10 minutes (final drug concentrations were 10 μM, 1 μM, 0.3 μM, 0.1 μM, 0.03 μM, 0.01 μM, 0.003 μM, 0.001 μM, respectively).
6 μL of a mixture of ATP (with a final reaction concentration of 50 μM) and substrate was added to the above reaction tube to react at 37° C. for 1 hour. The reaction buffer was 40 mM Tris, 7.5; 20 mM MgCl2; 0.1 mg/ml BSA; 50 μM DTT.
5 μL of the kinase mixture after the reaction was taken to a 384-well plate, and 5 μL of ADP-GLO™ reagent was added thereto. After reaction at room temperature for 40 minutes, the kinase reaction was terminated and the remaining ATP was consumed.
10 μL of a kinase detection reagent was added to convert ADP into ATP, and a coupled luciferase/luciferin reaction was utilized to detect the newly synthesized ATP. Envision was used to read and plot the data, and calculate the IC50 value.

MAP3K2 = MAP3K2 (Homo sapiens (Human), UniProt Q9Y2U5); conditions: literature; cited from earlier work
MAP3K2, sequence (Q9Y2U5 whole entry, species assumed): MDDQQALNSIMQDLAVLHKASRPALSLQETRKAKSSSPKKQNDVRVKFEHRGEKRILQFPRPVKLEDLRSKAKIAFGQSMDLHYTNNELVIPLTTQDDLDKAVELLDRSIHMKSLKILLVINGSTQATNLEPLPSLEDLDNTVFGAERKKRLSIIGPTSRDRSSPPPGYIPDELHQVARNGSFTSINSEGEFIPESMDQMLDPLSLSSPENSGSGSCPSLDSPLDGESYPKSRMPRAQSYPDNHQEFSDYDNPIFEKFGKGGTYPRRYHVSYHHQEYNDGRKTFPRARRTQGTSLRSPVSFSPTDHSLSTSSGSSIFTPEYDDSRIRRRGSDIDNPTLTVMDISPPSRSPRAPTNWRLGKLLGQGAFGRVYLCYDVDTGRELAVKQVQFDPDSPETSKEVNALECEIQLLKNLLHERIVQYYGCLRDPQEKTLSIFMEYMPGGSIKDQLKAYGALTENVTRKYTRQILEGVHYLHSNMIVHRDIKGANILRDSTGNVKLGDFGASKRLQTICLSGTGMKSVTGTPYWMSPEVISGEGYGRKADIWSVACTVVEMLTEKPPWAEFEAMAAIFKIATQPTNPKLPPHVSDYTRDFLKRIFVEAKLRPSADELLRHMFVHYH

PIK3CG = PIK3CG (Homo sapiens (Human), UniProt P48736); conditions: literature; cited from earlier work
PIK3CG, sequence (P48736 whole entry, species assumed): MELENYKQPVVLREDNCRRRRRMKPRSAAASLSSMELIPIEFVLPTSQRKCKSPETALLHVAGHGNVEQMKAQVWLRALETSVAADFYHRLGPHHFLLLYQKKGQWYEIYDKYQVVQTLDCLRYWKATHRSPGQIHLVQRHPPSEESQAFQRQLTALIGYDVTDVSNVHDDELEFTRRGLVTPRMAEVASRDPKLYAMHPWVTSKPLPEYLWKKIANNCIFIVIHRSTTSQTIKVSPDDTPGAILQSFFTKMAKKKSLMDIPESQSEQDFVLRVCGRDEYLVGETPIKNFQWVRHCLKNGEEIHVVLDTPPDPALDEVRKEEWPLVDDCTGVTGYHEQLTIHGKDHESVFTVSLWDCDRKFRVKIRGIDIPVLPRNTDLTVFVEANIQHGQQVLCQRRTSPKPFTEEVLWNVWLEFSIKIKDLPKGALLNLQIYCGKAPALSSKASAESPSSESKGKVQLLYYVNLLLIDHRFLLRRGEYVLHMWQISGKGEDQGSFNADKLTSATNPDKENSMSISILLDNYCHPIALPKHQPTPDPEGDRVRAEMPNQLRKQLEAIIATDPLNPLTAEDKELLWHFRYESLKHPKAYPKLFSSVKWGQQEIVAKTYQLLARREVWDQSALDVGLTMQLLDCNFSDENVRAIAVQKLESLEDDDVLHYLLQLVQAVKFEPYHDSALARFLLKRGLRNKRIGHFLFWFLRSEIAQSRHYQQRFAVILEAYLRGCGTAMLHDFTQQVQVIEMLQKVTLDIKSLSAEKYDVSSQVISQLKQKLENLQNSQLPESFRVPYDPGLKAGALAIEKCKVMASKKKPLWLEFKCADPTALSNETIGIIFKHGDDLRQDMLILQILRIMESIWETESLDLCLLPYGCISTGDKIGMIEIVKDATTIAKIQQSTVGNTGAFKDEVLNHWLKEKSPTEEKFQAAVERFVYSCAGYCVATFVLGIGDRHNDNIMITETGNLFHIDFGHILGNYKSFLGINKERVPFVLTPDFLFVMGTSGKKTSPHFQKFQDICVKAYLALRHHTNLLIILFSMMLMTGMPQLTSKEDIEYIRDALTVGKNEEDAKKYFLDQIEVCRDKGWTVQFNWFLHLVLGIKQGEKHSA

TAOK = conditions: literature; cited from earlier work
MST2 = MST2 (Homo sapiens (Human), UniProt Q13188); conditions: read-out: IC50 against MST2; literature; cited from earlier work
MST2, sequence (Q13188 whole entry, species assumed): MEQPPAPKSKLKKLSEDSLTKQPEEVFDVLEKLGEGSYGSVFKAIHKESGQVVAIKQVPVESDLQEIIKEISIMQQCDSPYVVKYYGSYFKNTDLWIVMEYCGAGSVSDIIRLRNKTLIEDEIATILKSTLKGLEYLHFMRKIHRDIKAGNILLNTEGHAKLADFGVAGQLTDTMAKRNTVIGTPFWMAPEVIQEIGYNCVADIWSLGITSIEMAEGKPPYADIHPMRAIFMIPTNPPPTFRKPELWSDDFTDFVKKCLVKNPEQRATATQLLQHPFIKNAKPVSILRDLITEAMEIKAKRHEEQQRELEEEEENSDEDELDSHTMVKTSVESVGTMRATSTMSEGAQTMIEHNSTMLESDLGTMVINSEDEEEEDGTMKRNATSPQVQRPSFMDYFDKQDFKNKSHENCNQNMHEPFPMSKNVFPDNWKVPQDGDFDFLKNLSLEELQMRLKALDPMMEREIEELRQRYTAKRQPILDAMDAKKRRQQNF

C57BL/6 mice = assay: Liver injury repair experiment (paracetamol/APAP-induced); format: in vivo
Procedure: C57BL/6 mice, male, 20 g, were maintained in a SPF animal room. Thirty C57BL/6 mice were fasted for 12 hours overnight, and 5 mice of which were intraperitoneally injected with normal saline to act as a normal control group, and the other 25 mice were intraperitoneally injected with paracetamol (APAP) (purchased from Sigma)-600 mg/kg, and randomly divided into 5 groups after 30 minutes, wherein the 5 groups include vehicle (5% DMSO in water), compound 1-1-po, compound 1-2-po, compound 1-4-po, XMU-MP-1-ip groups. Mice in the vehicle group were administered intragastrically with vehicle control; mice in the compound 1-1-po, compound 1-2-po, compound 1-4-po groups were administered intragastrically with compound 1 at 1 mg/kg, 2 mg/kg or 4 mg/kg, respectively; mice in the XMU-MP-1-ip group were intraperitoneally administered with the control compound XMU-MP-1 at 1 mg/kg. After the administration, the body weight of the mice was monitored and the survival status of the mice was observed.

AURKA = AURKA (Homo sapiens (Human), UniProt O14965); conditions: literature; cited from earlier work
AURKA, sequence (O14965 whole entry, species assumed): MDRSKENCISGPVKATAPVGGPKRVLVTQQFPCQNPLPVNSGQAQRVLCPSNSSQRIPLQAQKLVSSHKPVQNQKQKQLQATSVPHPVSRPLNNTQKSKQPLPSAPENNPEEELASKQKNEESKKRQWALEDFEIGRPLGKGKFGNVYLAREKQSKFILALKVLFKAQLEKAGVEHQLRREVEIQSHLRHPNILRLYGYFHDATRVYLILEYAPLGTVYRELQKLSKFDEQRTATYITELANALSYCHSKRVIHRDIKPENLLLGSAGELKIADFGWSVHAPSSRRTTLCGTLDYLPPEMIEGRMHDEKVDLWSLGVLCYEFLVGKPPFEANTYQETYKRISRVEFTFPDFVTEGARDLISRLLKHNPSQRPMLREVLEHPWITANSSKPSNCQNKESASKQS

MIN-6 cells = assay: Proliferation of MIN-6 cells (cell counter); conditions: 1 μM, 72 hours
Procedure: The effects of compound 1 and the control compound XMU-MP-1 on MST1 signaling pathway such as autophosphorylation of MST1, apoptosis signaling pathway such as cleavage of four proteins Caspase9/7/3 and PARP, expression of BIM, BAX, BCL-2, BCL-XL protein, proliferation-related signaling pathway such as autophosphorylation of AKT and ERK, and phosphorylation and protein expression of insulin secretion transcription factor PDX1 were tested in mouse pancreatic β-cells, MIN-6 cells (Hunan Fenghuishengwu technology Co., Ltd.). Compound 1 of different concentrations (0 μM, 0.3 μM, 1 μM, 3 μM in DMSO) and XMU-MP-1 of 1 μM (in DMSO) were used to treat the cell line for 72 hours in a medium with a glucose content of 33.3 mM, respectively. One of the control DMSO group involved 5.5 mM glucose and the other one involved 33.3 mM glucose. The samples were collected.
JIMBIO cell counter (EXCEL HERO TECHNOLOGY LIMITED) was used to detect the effect on the proliferation of MIN-6 cells after 72 hours of the administration.

T1 sequence (Q13043 whole entry): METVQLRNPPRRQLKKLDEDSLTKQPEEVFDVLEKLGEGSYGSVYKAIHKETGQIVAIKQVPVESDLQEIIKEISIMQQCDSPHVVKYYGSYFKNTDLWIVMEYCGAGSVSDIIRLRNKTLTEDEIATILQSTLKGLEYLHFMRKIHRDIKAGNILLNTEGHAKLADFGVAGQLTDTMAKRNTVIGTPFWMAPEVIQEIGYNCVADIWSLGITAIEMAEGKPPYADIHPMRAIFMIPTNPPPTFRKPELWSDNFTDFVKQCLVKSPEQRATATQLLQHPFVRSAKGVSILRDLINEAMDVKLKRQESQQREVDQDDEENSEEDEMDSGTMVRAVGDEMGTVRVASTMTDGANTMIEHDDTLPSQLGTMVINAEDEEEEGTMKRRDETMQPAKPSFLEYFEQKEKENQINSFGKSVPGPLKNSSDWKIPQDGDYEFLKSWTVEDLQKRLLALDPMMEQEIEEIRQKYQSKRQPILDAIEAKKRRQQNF

SMILES: CN1C(=O)c2sccc2N(C)c2nc(Nc3ccc(S(N)(=O)=O)cc3)ncc21 [XMU-MP-1]
- IC50 (MST1 [1]): 71 nM
- IC50 (MST1 [2]): 0.121 µM
- inhibitory effect on MAP3K2 (MAP3K2): significant inhibitory effect
- inhibition of PIK3CG (PIK3CG): inhibited
- inhibitory effect on TAOK (TAOK): significant inhibitory effect
- IC50 (MST2): 38 nM
- survival of the mice (C57BL/6 mice; 1 mg/kg intraperitoneally after APAP 600 mg/kg ip): all escaped from death
- weight of mice (C57BL/6 mice; after APAP 600 mg/kg ip, compound 1 po 1-4 mg/kg, XMU-MP-1 ip 1 mg/kg): can gradually recover
- inhibition of AURKA (AURKA): inhibited
- number of cells (MIN-6 cells): reduced to a certain extent
- toxicity to MIN6 cells (MIN-6 cells): toxic to MIN6 cells to a certain extent
